The assay addresses T1, Sirt1 (Homo sapiens, UniProt Q96EB6).
T1 construct: purchased
T1 sequence (Q96EB6 1-747): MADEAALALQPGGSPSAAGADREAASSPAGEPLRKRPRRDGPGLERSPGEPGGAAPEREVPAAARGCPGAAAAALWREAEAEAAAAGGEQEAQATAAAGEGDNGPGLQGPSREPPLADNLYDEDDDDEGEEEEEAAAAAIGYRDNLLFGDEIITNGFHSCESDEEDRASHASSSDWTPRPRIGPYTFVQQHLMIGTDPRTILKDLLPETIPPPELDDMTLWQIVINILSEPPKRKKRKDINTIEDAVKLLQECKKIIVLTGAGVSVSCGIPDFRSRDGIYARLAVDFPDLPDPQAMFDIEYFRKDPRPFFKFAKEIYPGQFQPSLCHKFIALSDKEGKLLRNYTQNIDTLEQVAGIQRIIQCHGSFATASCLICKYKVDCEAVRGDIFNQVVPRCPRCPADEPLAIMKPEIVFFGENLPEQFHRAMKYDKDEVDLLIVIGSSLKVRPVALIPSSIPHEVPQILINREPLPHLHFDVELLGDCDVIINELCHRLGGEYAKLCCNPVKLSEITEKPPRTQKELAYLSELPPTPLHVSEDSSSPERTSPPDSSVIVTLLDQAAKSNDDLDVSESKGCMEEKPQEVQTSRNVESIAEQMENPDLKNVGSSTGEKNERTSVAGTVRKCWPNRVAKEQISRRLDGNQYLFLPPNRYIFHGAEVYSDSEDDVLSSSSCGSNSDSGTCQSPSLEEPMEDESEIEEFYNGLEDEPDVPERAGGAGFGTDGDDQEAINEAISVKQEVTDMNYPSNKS
Description: Km determination for SIRT1 substrates by RapidFire mass spectrometric quantification of acetyl-ADPr. It is filed as biochemical. The following applies: room temperature, 50 mM Tris pH 7.5, 1/1500 dilution of enzyme, acetyl-ADPr detection. From the text:
A high-throughput in vitro assay using the current invention was developed against a commercially available SIRT1 enzyme preparation. The assay was then used to fully characterize the enzyme preparation through a series of kinetic and end-point assays. Commercially available ADP-ribose was used to develop mass spectrometric methods and separation techniques for sensitive and selective detection in the assay. A quantitative analysis method for acetyl-ADPr, a compound that has a chemical structure and properties similar to ADP-ribose, was developed based on the method developed for ADP-ribose.
Next, ADP-ribose was dissolved at a concentration of 1.0 micromolar in an assay buffer consisting of 50 mM Tris pH 7.5 containing 137 mM NaCl, 2.7 mM KCl, 1 mM MgCl2, 0.1% BSA, 1 mM NAD^+. Separation conditions to purify ADP-ribose from the assay buffer for mass spectrometric analysis were developed on a RapidFire® 200 High-Throughput Mass Spetrometry system. The optimized conditions for sample desalting were determined to be a sample wash with water for 3 seconds at a flow rate of 1.5 mL/min and sample elution with a 2:1:1 solution of water:acetonitrile:acetone containing 5 mM ammonium acetate for 3.5 seconds at a flow rate of 1.25 mL/min. […]

Each structure is given as a SMILES string.

In US20110251104A1, “COMPOSITIONS AND METHODS FOR DETECTING DEACETYLASE ACTIVITY” (priority 2010, published 2011) one finds Km data, which are given here for one compound.

As usually defined, the Km is the substrate concentration at which the rate is half of its maximum.

For the compound `NC(=O)c1ccc[n+]([C@@H]2O[C@H](COP(=O)([O-])OP(=O)(O)OC[C@H]3O[C@@H](n4cnc5c(N)ncnc54)[C@H](O)[C@@H]3O)[C@@H](O)[C@H]2O)c1` [NAD+, nicotimamide adenine dinucleotide], the Michaelis-Menten constant (Km) was determined as 54 ± 1 µM.
